Activity calls are given as the source filed them. How the calls were made is not given here.
Test: inhibitors of TNFa-induced E-selectin expression, confirmation, imaging, retest plus dose response, cell count (AID 1288);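 further: 0% = stimulated vehicle wells and 100% = unstimulated vehicle wells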
Settings: human endothelial cells, TNFa-induced E-selectin, imaging; at 2 µM; hits give high values

Row | SMILES | inhibition
1 | O=C(/C=C\Nc1cccc(F)c1)c1cccs1 | -1.7% (inactive)
2 | COc1ccccc1NC(=O)CSc1nnc2ccc(-c3cccnc3)nn12 | -0.72% (inactive)
3 | CSc1cccc(NC(=O)C2CCCN(S(=O)(=O)c3ccc(F)cc3)C2)c1 (centres undefined) | 35.8% (inactive)
4 | COc1cc(/C=C2\SC(=S)N(CC(=O)Nc3ccc(O)cc3)C2=O)cc(OC)c1OC | -1.6% (inactive)
5 | Cc1cccc(NC(=S)Nc2ccccn2)c1C | -0.54% (inactive)
6 | Cc1cc(NCCN2CCCCC2)n2c(nc3ccccc32)c1C#N | 11.7% (inactive)
7 | COC(=O)CCC(=O)Nc1nc(-c2ccccc2)cs1 | 16.6% (inactive)
8 | S=C(NCc1cccs1)Nc1cccc(Cl)c1Cl | 8.76% (inactive)
9 | Cc1ccc(/C([O-])=C(/C(=S)NCc2ccccc2)[n+]2cccc(CO)c2)cc1[N+](=O)[O-] | -5.81% (inactive)
10 | COc1ccc2nc(SCc3nc(N)nc(Nc4ccccc4)n3)[nH]c2c1 | 6.2% (inactive)
11 | CCc1ccc(CN(C)C(=O)c2cc(COc3c(F)cccc3F)on2)cc1 | 13% (inactive)
12 | COc1cc(CN2CCN(c3ccc(C)cc3)CC2)cc([N+](=O)[O-])c1O | 24.7% (inactive)
13 | COc1ccc(-n2nc3c(c2NC(=O)c2cc(Br)ccc2Cl)CS(=O)C3)cc1 (centres undefined) | -1.7% (inactive)
14 | CS(=O)(=O)c1ccc(Cl)c(NC(=O)c2ccc3ccccc3c2)c1 | 4.97% (inactive)
15 | Cc1cc(=O)n2nc(-c3ccccc3)sc2c1C#N | 1.2% (inactive)
16 | O=C(NCc1ccccc1)N1CCN(c2ccc(Cl)c(Cl)c2)CC1 | 15.4% (inactive)
17 | O=C(COc1ccc(/C=N/NC(=O)C(=O)N2CCCCCC2)cc1)Nc1ccccc1Cl | 8.09% (inactive)
18 | C=CCNC(=S)NNC(=O)c1ccc(OCC)cc1 | 1.76% (inactive)
19 | CCCC(CCC)C(=O)NNc1cc(=O)c2c(=O)n(C)c(=O)n(C)c2[nH]1 | 5.15% (inactive)
20 | COc1ccc(Br)cc1CN(C)CC(=O)Nc1cc(Cl)ccc1Cl | -1.79% (inactive)
21 | N#CCc1ccc(NS(=O)(=O)c2cccs2)cc1 | 7.74% (inactive)
22 | Cn1c(=O)[nH]c(=O)c2c1nc(CN1CCN(Cc3ccccc3)CC1)n2CC(N)=O | 8.32% (inactive)
23 | C/C(=N\NC(=O)c1cccc(C)c1)c1ccc(N2CCOCC2)cc1 | 4.53% (inactive)
24 | c1csc(C(c2nnnn2C2CCCC2)N2CCCC3(CCCCC3)C2)c1 (centres undefined) | -3.21% (inactive)
25 | CCn1cc(C(=O)NCc2ccco2)c(=O)c2cc(S(=O)(=O)N3CCc4ccccc4C3)ccc21 | 41.9% (inactive)

Row | SMILES | inhibition
26 | CCC(C(=O)OC)n1c(-c2ccccc2)nc2ccccc2c1=O (centres undefined) | 10.1% (inactive)
27 | Cc1c(N=C/C=C2\N(C)c3ccccc3C2(C)C)c(=O)n(-c2ccccc2)n1C | 1.21% (inactive)
28 | C=CCNC(=S)NNC(=O)c1ccc(Br)cc1 | 38.3% (inactive)
29 | CCC(C(=O)N1CCc2cc(OC)c(OC)cc2C1)c1ccccc1 (centres undefined) | -0.78% (inactive)
30 | COc1ccc(NC(=O)N(CCCN2CCOCC2)Cc2cccnc2)c(OC)c1 | 3.7% (inactive)
31 | COc1ccc(-n2c(COc3ccccc3)nnc2SCC(N)=O)cc1 | 42.3% (inactive)
32 | CC(C)C(=O)Nc1ccc(-c2nc3cccnc3o2)cc1 | 15.7% (inactive)
33 | COc1ccccc1NC(=O)c1ccc(S(=O)(=O)N2CCCC2)cc1 | 3.22% (inactive)
34 | O=C(Cn1nnc(-c2ccc(Cl)cc2)n1)NC1CCN(Cc2ccccc2)CC1 | 11.8% (inactive)
35 | COc1cccc(-c2cc3c(=O)n(-c4ccccc4)c(=S)[nH]c3s2)c1 | 24.4% (inactive)
36 | N=c1sccn1CC(=O)NCCc1ccc(Cl)cc1 | 3.43% (inactive)
37 | Cc1cc(C)cc(C(=O)Oc2coc(CSc3nnc(NC(=O)C4CC4)s3)cc2=O)c1 | 6.25% (inactive)
38 | COCCN1CN(S(=O)(=O)c2ccccc2)c2nc3ccccc3nc21 | 2.89% (inactive)
39 | CC(=O)c1ccc(NC(=O)Nc2ccc([N+](=O)[O-])cc2C)cc1 | 48% (inactive)
40 | CC(c1ccco1)N(C(=O)C12CC3CC(CC(C3)C1)C2)c1ccccn1 (centres undefined) | 5.6% (inactive)
41 | CCS(=O)(=O)Nc1ccc(-c2cc(-c3ccccc3)c3cc(C)ccc3n2)cc1 | 0.49% (inactive)
42 | Cc1nc2ccccc2c(=O)n1/N=C/c1ccc(O)cc1 | 4.58% (inactive)
43 | O=C1NCCCc2c1oc1cc(Br)c(O)c(Br)c21 | 15.8% (inactive)
44 | CCN1C(=O)/C(=C\c2cn(-c3ccccc3)nc2-c2cccnc2)SC1=S | 28% (inactive)
45 | O=S1(=O)CCN(CCc2c[nH]c3ccccc23)CC1 | -4.95% (inactive)
46 | CCOC(=O)C1C(c2cc(OC)c(O)c(OC)c2)NC(=S)NC1(O)C(F)(F)F (centres undefined) | 7.39% (inactive)
47 | Cc1ccc(CNC(=O)CCc2nc3ccccc3c(=O)[nH]2)cc1 | 15.6% (inactive)
48 | CCOC(=O)c1c(NC(=O)CSc2nnc(-c3ccccc3)n2CC)sc(C(C)=O)c1C | 8.92% (inactive)
49 | Cc1cc(C)n2nc(C(=O)N(C)C(c3ccccc3)c3ccccc3)nc2n1 | 7.77% (inactive)
50 | CCCNC(=O)C1CCN(S(=O)(=O)c2c(C)noc2/C=C\c2ccc(OC)cc2)CC1 | 6.76% (inactive)

Row | SMILES | inhibition
51 | CCN(CC)CCNC(=O)CS(=O)Cc1nc(-c2ccccc2Cl)oc1C (centres undefined) | 3.34% (inactive)
52 | CCOC(=O)c1sc2nc(CSc3nc4ccccc4n3CC)[nH]c(=O)c2c1C | -2.72% (inactive)
53 | Cn1c(SCc2ccc(Br)cc2)nnc1-c1ccncc1 | 0.83% (inactive)
54 | CC1(C)CC(=O)C(C=NCC2CCCO2)=C(O)C1 (centres undefined) | 17.9% (inactive)
55 | Cc1ccc2oc(=O)n(CCCOc3ccccc3)c2c1 | 26.2% (inactive)
56 | Oc1ccccc1Nc1nc(NCC2CCCO2)c2ccccc2n1 (centres undefined) | 5.39% (inactive)
57 | O=C(CSc1ncn(-c2ccccc2)n1)Nc1ccc2c(c1)OCCO2 | 14.5% (inactive)
58 | O=C1N(c2ccccc2)C2CS(=O)(=O)CC2N1c1ccc(Br)cc1 (centres undefined) | 10.8% (inactive)
59 | N#Cc1ccsc1NC(=O)COC(=O)c1ccc2ccccc2c1 | 5.46% (inactive)
60 | CCOc1ccc(NC(=O)COC(=O)C23CC4CC(CC(C4)C2)C3)c([N+](=O)[O-])c1 | 1.77% (inactive)
61 | O=[N+]([O-])c1ccc(N2CCNCC2)cc1NCC1CCCO1 (centres undefined) | -1.91% (inactive)
62 | COc1ccc(CCNC(=O)C(=O)NCc2ccc(C)cc2)cc1OC | 8.92% (inactive)
63 | O=C(Oc1nsnc1N1CCOCC1)N1CCOCC1 | 2.57% (inactive)
64 | O=C(Nc1nnc(C2CC2)s1)c1cc(-c2ccccc2)nn1-c1ccccc1 | 6.68% (inactive)
65 | Cc1c(Cl)cccc1N1C(=O)CC(N(O)c2ccccc2)C1=O (centres undefined) | 12.9% (inactive)
66 | CC(C)C(c1nnnn1Cc1ccc2c(c1)OCO2)N1CCN(C)CC1 (centres undefined) | 6.53% (inactive)
67 | CCCCCCOC(=O)C1=C(C)NC(=O)NC1c1ccc(O)cc1 (centres undefined) | 13.9% (inactive)
68 | Cc1cccc(C)c1NC(=O)CN(C)C(=O)/C=C/c1cccs1 | 1.62% (inactive)
69 | CN(C)CC1CSCCC1(O)c1ccc(Cl)cc1 (centres undefined) | 20.4% (inactive)
70 | CCN1C(=O)c2cccc3c(NC(=O)c4cccc(N5C(=O)CCC5=O)c4)ccc1c23 | 0.82% (inactive)
71 | Cc1ccc(/C=c2\sc3n(c2=O)CN(c2cccc(Br)c2)CN=3)o1 | 3.58% (inactive)
72 | COc1ccc(S(=O)(=O)N(CC(N)=O)C2CCCCC2)cc1Cl | 5.95% (inactive)
73 | CCn1c(SCC(=O)Nc2ccccc2)nnc1C1CCCCC1 | 2.46% (inactive)
74 | Cc1cc(C)c(C#N)c(=N)o1 | -5.81% (inactive)
75 | COc1ccc(C2C(C#N)=C(SCC(=O)Nc3ccc(C)cc3)NC3=C2C(=O)CC(C)(C)C3)cc1 (centres undefined) | 4.4% (inactive)

Row | SMILES | inhibition
76 | O=C(/C=C/c1ccccc1)N1CCC(Cc2ccccc2)CC1 | 9.46% (inactive)
77 | Clc1ccc(Nc2ccc(-n3ccnc3)nn2)cc1Cl | 11.7% (inactive)
78 | COc1cc(-c2nnc(COc3ccc4ccccc4c3)o2)cc(OC)c1OC | 5.08% (inactive)
79 | O=C(/C=C/c1ccc(F)cc1)NC(=S)Nc1ccccc1C(=O)NC1CCCCC1 | 2.9% (inactive)
80 | COc1cccc(/C=C/C(=O)OCC(=O)Nc2ccc(Cl)c(S(=O)(=O)N(C)C)c2)c1 | 2.19% (inactive)
81 | Cc1cc(=O)oc2cc(OCC(=O)OCC(=O)NCc3ccc4c(c3)OCO4)ccc12 | 22.5% (inactive)
82 | COc1ccc(OCC2CNC(=O)O2)cc1 (centres undefined) | 0.97% (inactive)
83 | CC(=O)Oc1cccc(N2C(=O)C3CC=C(Cl)CC3C2=O)c1 (centres undefined) | 31.6% (inactive)
84 | Cc1cc(C)c2cc(CN(Cc3ccc4c(c3)OCO4)Cc3nnnn3Cc3ccco3)c(=O)[nH]c2c1 | -1.09% (inactive)
85 | O=C(N/N=C/c1ccc([N+](=O)[O-])s1)c1cccnc1 | 44.3% (inactive)
86 | Cc1cc(C)cc(NC(=S)NC2CC3CCCC(C2)N3C2CC2)c1 (centres undefined) | 0.55% (inactive)
87 | Cc1c(Cl)cnc(NC(=O)COC(=O)c2nn(C)c(=O)c3ccccc23)c1Cl | 12.5% (inactive)
88 | COc1ccc2[nH]c(C)c(CCN3C(=O)C4C5C=CC(C5)C4C3=O)c2c1 (centres undefined) | 9.54% (inactive)
89 | CN(c1ccc(C(=O)NCC2CCCO2)cc1)S(C)(=O)=O (centres undefined) | 6.07% (inactive)
90 | CCOC(=O)c1cnc2ccc(C)cc2c1Nc1ccc(N2CCOCC2)cc1 | 5.86% (inactive)
91 | O=C(CN1CCN(Cc2ccccc2Cl)C1=O)NCc1ccco1 | 8.68% (inactive)
92 | CCOc1ccc(NCc2nc3ccccc3n2CCOc2ccccc2)cc1 | 11.6% (inactive)
93 | CCCCOc1ccc(-c2nnn(C(C)C(=O)OCC)n2)cc1 (centres undefined) | 27.1% (inactive)
94 | N#CC(C#N)=C/C(C#N)=C(/N)N1CCN(c2ccc(Cl)cc2)CC1 | 6.82% (inactive)
95 | CC(CCc1ccccc1)NC(=O)/C=C/c1ccc(Cl)cc1 (centres undefined) | 14.9% (inactive)
96 | COc1ccc(S(=O)(=O)Cc2ccc(C(=O)N3CCOCC3)o2)cc1 | 26.4% (inactive)
97 | O=C(Nc1ccc(Cl)cc1)Nc1nnc(CSc2ccc(Cl)cc2)s1 | 6.9% (inactive)
98 | COc1cc(C(=O)OCCNC(=O)c2ccncc2)cc(OC)c1OC | 9.29% (inactive)
99 | N=C(N)SCc1nc2ccccc2c(=O)n1-c1ccccc1 | 9.67% (inactive)

Source: PubChem BioAssay AID1288 (Columbia University Molecular Screening Center, 2008)
